Measured values published in US20260327211A1, “MODULATORS OF A POTASSIUM CHANNEL AND OF TRPV1 CHANNEL AND USES THEREOF” (Bsense Bio Therapeutics Ltd., priority 2023, published 2026).
Values joined by “and” are separate entries in the source; they are usually repeats but may differ in a detail not shown here. Equal entries are not always repeated.

Tests used:
[1] = test system: CYP3A4; test: CYP inhibition / time-dependent inhibition, CYP3A4_Midazolam; type: in vitro ADME, human; conditions: for TDI related reactive metabolite: Table 11
Description: The time-dependent inactivation potency of the test compound to CYP enzymatic activities was assessed by the pre-incubation of the human liver microsomes with the test compound in the presence and absence of NADPH, followed by the incubation with the discrete marker substrates, as follows.
Pre-incubation with human liver microsomes (HLMs): The TDI inactivation potency on CYP enzymatic activities was evaluated through pre-incubation with HLMs (Corning). A liver microsome mixture at a concentration of 0.1 mg/mL, and the test compound at 8 different concentrations (0, 0.05, 0.165, 0.5, 1.65, 5.0, 16.5, or 50.0 μM) was warmed at 37° C. for 10 minutes. Concurrently, a set of known time-dependent inactivators was also prepared in duplicate for comparison. Following this, NADPH (1.0 mM) was added to one group (Group 1), and an equal volume of potassium phosphate buffer to the second group (Group 2), marking the beginning of a 30-minute pre-incubation at 37° C.
Incubation: After pre-incubation, the marker substrate, or marker substrate plus NADPH was added to the mixture, thereby initiating the incubation. The duration of the incubation was dependent on the type of CYP isoform being evaluated. For example, with the CYP3A isoform, the mixture was incubated over 3 minutes utilizing midazolam as the marker substrate (2.0 μM), verapamil as the standard inactivator (3.5 μM).
Termination of Reaction: Following the incubation, ice-cooled acetonitrile containing the internal standard (IS) was added to halt the reactions. Metabolites generated from the marker substrates were then measured via LC-MS/MS, assessed based on peak area ratios of the analyte to IS.

[2] = molecular target: T1, hTRPV1 (Homo sapiens, UniProt Q8NER1); test: hTRPV1 dual activity electrophysiology, CHO cells co-expressing hKv7.2/3 and hTRPV1; type: cell-based
T1 construct: CDS of NM_080704.4, inserted into the multiple cloning site of pcDNA3.1(+); host or cells: CHO/hKv7.2/3

[3] = Bidirectional permeability in Caco-2 cells; type: in vitro ADME, human
Description: Cell culture: Caco-2 cells (ATCC) were seeded onto polycarbonate (PC) membranes in 96-well insert plates. The cells were cultured in media for 21-28 days prior to performing the transport assays.
Validation of monolayer integrity: Once the Caco-2 cells formed a confluent monolayer, their integrity was evaluated using a Lucifer yellow rejection assay. The monolayer integrity was further evaluated by measuring, in duplicate wells, the unidirectional (A→B) permeability of nadolol (a low permeability marker) and metoprolol (a high permeability marker), as well as bidirectional permeability of digoxin (a P-glycoprotein substrate marker).
Assay: The compounds were assayed under bidirectional transport conditions (A→B and B→A) at a concentration of 2.00 μM (with DMSO≤1.0%), using a transport buffer composed of HBSS containing 10.0 mM HEPES, pH 7.40±0.05. The incubation was carried out at 37° C., with 5.0% CO2 and relatively saturated humidity for 2 hours.
The dosing solution was spiked and mixed with the transport buffer and a Stop Solution (containing an internal standard (IS)) to create a T0 sample.
Sample analysis: Following the incubation, all of the samples were analyzed using LC-MS/MS. The concentrations of the test compounds were expressed as peak area ratios of the analytes versus the IS.

[4] = Dual hTRPV1 / Dual Expressing CHO, CAP IC50, Kv7.2/3 co-expressed and activated, capsaicin

T1 sequence (Q8NER1 whole entry): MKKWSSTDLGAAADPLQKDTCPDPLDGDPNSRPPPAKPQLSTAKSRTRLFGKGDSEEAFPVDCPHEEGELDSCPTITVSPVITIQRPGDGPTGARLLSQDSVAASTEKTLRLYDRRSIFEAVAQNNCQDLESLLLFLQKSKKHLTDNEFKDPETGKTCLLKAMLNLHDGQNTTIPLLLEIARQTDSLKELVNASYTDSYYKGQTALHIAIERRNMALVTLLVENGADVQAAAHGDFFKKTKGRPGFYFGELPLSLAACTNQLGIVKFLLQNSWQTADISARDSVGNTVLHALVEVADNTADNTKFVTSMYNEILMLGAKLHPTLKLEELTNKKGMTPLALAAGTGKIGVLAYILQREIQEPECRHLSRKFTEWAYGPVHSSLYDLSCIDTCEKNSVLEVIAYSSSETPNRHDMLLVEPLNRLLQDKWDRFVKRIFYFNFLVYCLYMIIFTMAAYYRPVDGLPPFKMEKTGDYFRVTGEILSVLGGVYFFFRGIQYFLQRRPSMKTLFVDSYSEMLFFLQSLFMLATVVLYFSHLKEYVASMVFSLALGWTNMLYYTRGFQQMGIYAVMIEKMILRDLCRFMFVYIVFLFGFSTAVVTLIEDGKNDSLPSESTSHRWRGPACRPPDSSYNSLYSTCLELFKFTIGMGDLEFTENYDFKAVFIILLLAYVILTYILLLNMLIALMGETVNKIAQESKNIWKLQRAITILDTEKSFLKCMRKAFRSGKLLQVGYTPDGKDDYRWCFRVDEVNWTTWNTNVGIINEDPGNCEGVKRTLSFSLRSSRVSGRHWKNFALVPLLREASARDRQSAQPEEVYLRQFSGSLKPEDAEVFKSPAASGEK

TDI related reactive metabolite [1]	IC50 [2, 4]	SMILES	Caco-2 AB [3]	other results
Yes		Cc1cn(-c2ccc(F)c(CC(=O)NCC(C)(C)O)c2)c2c(Cl)cc(Cl)cc12 [Compound 421]		
Yes	260 pM and 270 pM	O=C(Cc1cc(-n2cc(Cl)c3cc(Cl)cc(Cl)c32)ccc1F)NCCO [Compound 627]		
Yes	70 pM and 68 pM	O=C(Cc1cncc(-n2cc(Cl)c3cc(Cl)cc(Cl)c32)c1)N[C@@H]1COC[C@H]1O [Compound 661]	1.78	TRPV1 inhibition, dual-expressing CHO ([2]; 0.01 nM): mild inhibition; TRPV1 inhibition, dual-expressing CHO ([2]; 0.1 nM): inhibited; Potency in dual-expressing CHO vs CHO expressing only TRPV1 ([2]; cho cells): > 200,000 fold
	48000 pM	O=C(Cc1ccnc(-n2cc(Cl)c3cc(Cl)cc(Cl)c32)n1)N[C@@H]1COC[C@H]1O [Compound 820]		Caco-2 Efflux ratio ([3]; 2.00 μM, 120 min): 2.49; efflux ratio at 2 h, 2 µM ([3]; human, Caco-2, pH 7.4, 2.00 μM): < 3; CYP-TDI (midazolam), (−)NADPH/(+)NADPH Ratio CYP3A4 ([1]; role: inhibitor, substrate midazolam 2.0 μM, CYP TDI ratio): <0.9
	528 pM	O=C(Cc1cc(-n2cc(C(F)(F)F)c3cc(Cl)cc(Cl)c32)ncn1)NCCO [Compound 843]		

SMILES	TDI related reactive metabolite [1]	IC50 [2, 4]	Caco-2 AB [3]	other results
O=C(Cc1nccc(-n2cc(Cl)c3cc(Cl)cc(Cl)c32)n1)NC1COCC1O (centres unmarked) [Compound 760]	No	201 pM	7.6	inhibition at 100 µM ([2]; CHO, read-out: hTRPV1 current inhibition): 46 ± 13.7%; IC50 ([2]; IC50 of hTRPV1 current inhibition in CHOs with both targets co-expressed and activated, EP): ~100 pM; CYP inhibition / TDI, all CYPs of Table 9 ([1]; role: inhibitor, up to 20 micromolar): did not show significant CYP inhibition or time-dependent inhibition (TDI)
